Experimental data: PMC7199514 (Frontiers in Chemistry, 2020)

What was measured:
[1] = tested on: A549 cisplatin-resistant subline A549/DDP; assay: MTT antiproliferation assay, A549/DDP; details: read-out: IC50 to cell lines, A549/DDP, exposed to tested compounds for 48 h
Procedure: (§2) The cancer cell lines HeLa, A549, MCF-7, and A431 were obtained from the Center for Cell Resource of Peking Union Medical College Hospital, except that A549 cisplatin-resistant subline A549/DDP was obtained by incubation of increased concentration of cisplatin in the culture media until the IC50 value toward cisplatin was above three times of that of A549 cells. The cells were maintained in DMEM (Invitrogen, USA) media supplemented with 10% fetal calf serum (HyClone, USA), 1% PS at 310 K with 5% CO2. The IC50 values were determined using 3-(4,5-dimethyl-2-thiazolyl)-2,5-diphenyl-2-H-tetrazolium bromide (MTT) assay. […] Then cells were exposed to each tested compound at eight concentrations for 48 h. The resulting solution was removed and washed for two times using PBS; then 100 μl cell culture medium containing MTT (0.5 mg/ml) was added to the wells and incubated at 310 K for 4 h. Finally, the MTT media was removed and 100 μl DMSO added to each well to dissolve the formazan crystals. The optical density (OD) values were measured using a microplate reader (SpectraMax M5) at the wavelength of 570 nm. […] The IC50 value was calculated in Origin 8.0 using the logistic regression model. All reported values were averages of six independent experiments and expressed as mean ± standard deviation (SD).

A431 cells = assay: MTT antiproliferation assay, A431; details: read-out: IC50 to cell lines, A431, exposed to tested compounds for 48 h
Procedure: as §2

A549 cells = assay: MTT antiproliferation assay, A549; details: read-out: IC50 to cell lines, A549, exposed to tested compounds for 48 h
Procedure: as §2

HeLa cells = assay: MTT antiproliferation assay, HeLa; details: read-out: IC50 to cell lines, HeLa, exposed to tested compounds for 48 h
Procedure: as §2

MCF-7 cells = assay: MTT antiproliferation assay, MCF-7; details: read-out: IC50 to cell lines, MCF-7, exposed to tested compounds for 48 h
Procedure: as §2

[2] = target: T1, EGFR (kinase domain only) (Homo sapiens, UniProt P00533); assay: EGFR inhibition by ELISA; format: biochemical; details: ELISA in the presence of 200 μM of ATP
T1 construct: mixed with as-prepared EGFR (kinase domain only) solution; purchased Cell Signaling Technology, Inc. (assay kit); 7909
T1 sequence (P00533 712-979 limits assumed): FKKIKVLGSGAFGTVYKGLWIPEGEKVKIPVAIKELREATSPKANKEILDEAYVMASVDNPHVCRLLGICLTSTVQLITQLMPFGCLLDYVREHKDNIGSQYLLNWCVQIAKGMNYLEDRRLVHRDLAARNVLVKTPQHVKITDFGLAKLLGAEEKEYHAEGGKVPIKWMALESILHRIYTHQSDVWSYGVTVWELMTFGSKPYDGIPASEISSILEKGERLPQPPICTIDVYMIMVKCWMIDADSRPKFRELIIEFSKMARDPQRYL
Procedure: Enzyme-linked immunosorbent assay (ELISA) was employed to evaluate the inhibition of compounds against EGFR. The ELISA screening was performed following the instruction provided by the supplier of the assay kits (no. 7909, Cell Signaling Technology, Inc.). An aliquot (10 μl) of the enzyme solution was added to 415 μl dithiothreitol (DTT) kinase buffer, which consists of 1.25 M DTT and 4 × HTScan® tyrosine kinase buffer [240 mM HEPES (pH 7.5), 20 mM MgCl2, 20 mM MnCl2, and 12 μM Na3VO4]. Each tested Pt compound was dissolved in dimethyl sulfoxide (DMSO) to give a 4 mM solution which was then diluted by deionized water prior to use. The ATP/peptide mixture was prepared by addition of 10 μl of 2.5 mM ATP to 125 μl of 6 μM substrate peptide and then diluted with D2O to 250 μl. An aliquot (12.5 μl) of the solution of a tested compound was mixed with as-prepared EGFR (kinase domain only) solution [12.5 μl, in 50% glycerol, containing 50 mM HEPES (pH = 7.6), 150 mM NaCl, 0.1% Triton, and 1 mM DTT, Sigma Chemical Company] and incubated at 298 K for 5 min, followed by addition of 25 μl of ATP/substrate mixture, and then the resulting mixture was incubated at 310 K for 1 h. The phosphorylation reaction was terminated by the addition of 50 μl/well stop buffer (50 mM EDTA, pH = 8). Each well of a microtiter plate was coated with 100 μl of 10 μg/ml streptavidin (Tianjin Biotechnology Co. Ltd., China) in carbonate–bicarbonate buffer and incubated overnight at 277 K and then blocked with 1.5% bovine serum albumin (BSA, Xinjingke Biotechnology Co. Ltd., China) in PBS/T (PBS solution containing 0.05% Tween-20) at 310 K for 2 h, followed by three times of washing with PBS/T prior to use. Then, 25 μL/well of each enzymatic reaction mixture and 75 μL/well of D2O were added to the plate (in triplicate) for incubation at 310 K for 1 h. Following three times of washing with PBS/T, 100 μl of primary antibody (phospho-tyrosine mouse mAb, 1:1,000 in PBS/T with 1.5% BSA) was added to each well, and the plate was incubated at 310 K for another 1 h. The plate was again washed three times with PBS/T, and then 100 μl of the secondary antibody (HRP-labeled goat anti-mouse IgG, from Zhongshan Golden Bridge Biotechnology Co. Ltd., China, diluted 1:1,000 in PBS/T with 1.5% BSA) was added to each well and incubated for 1 h at 310 K, followed by three times of washing with PBS/T. Finally, 100 μl of 3,3′,5,5′-tetramethylbenzidine (TMB, Xinjingke Biotechnology Co. Ltd., China) substrate was added to each well, and the plate was incubated at 310 K for 15 min, and then the reaction was stopped by addition of 100 μl of 2 M H2SO4 to each well, and the plate was read on the ELISA plate reader (SpectraMax M5 Molecular Devices Corporation) at 450 nm to determine the OD values. […]

calf thymus DNA (ct-DNA) [3] = assay: Competitive displacement of Hoechst 33342 from ct-DNA by fluorescence titration (minor groove binding); details: for affinity in minor groove binding relative to intercalation with DNA: Ksv Hoechst vs Ksv EB; for Ksv (Stern–Volmer quenching constant), replacing Hoechst from ct-DNA: Tris-HCl pH 7.4, 310 K, λex = 370 nm
Procedure: (§1) Complexes 2 and 4 were dissolved in DMSO to yield a panel of 0.25, 0.5, 1.0, 1.5, 2.0, 3.0, 4.0, and 5.0 mM solutions. The calf thymus DNA (ct-DNA) was dissolved in Tris-HCl buffer (pH = 7.4) to give a […] solution. Ethidium bromide (EB) (10 mM, 2 μl) or Hoechst 33342 (4 mM, 5 μl) and ct-DNA ([…], 978 or 975 μl) was incubated at 310 K for 0.5 h. Then the DMSO solution of complexes (20 μl) was added to the resulting solution and kept incubated. After 2 h, each reaction mixture was measured on an F-4500 fluorescence spectrophotometer (HITACHI) with excitation wavelength at 500 nm and emission spectra from 520 to 700 nm for EB mixed solution and excitation wavelength at 370 nm and emission spectra from 400 to 650 nm for Hoechst 33342 mixed solution. A modified Stern–Volmer plot (Sarwar et al., [2015]) was employed to evaluate the affinity of complexes toward DNA.

calf thymus DNA (ct-DNA) [4] = assay: Competitive displacement of EB from ct-DNA by fluorescence titration (intercalation); format: binding; details: Tris-HCl pH 7.4, 310 K, λex = 500 nm
Procedure: as §1

Compound | IC50 [1] [µM] | IC50 (A431 cells) [µM] | IC50 (A549 cells) [µM] | IC50 (HeLa cells) [µM] | IC50 (MCF-7 cells) [µM] | IC50 [2] [µM] | affinity in minor groove binding relative to intercalation with DNA (calf thymus DNA (ct-DNA) [3]) | Ksv (Stern–Volmer quenching constant), replacing Hoechst from ct-DNA (calf thymus DNA (ct-DNA) [3]) [M⁻¹] | Ksv (Stern–Volmer quenching constant), replacing EB from ct-DNA (calf thymus DNA (ct-DNA) [4]) [M⁻¹]
N.N.[Cl][Pt][Cl] [Cisplatin, reference compound] | 30.9 ± 1.1 | 11.1 ± 0.4 | 10.1 ± 1.6 | 12.9 ± 0.6 | 15.6 ± 0.8 | – | – | – | –
COc1cc2ncnc(Nc3ccc(F)c(Cl)c3)c2cc1OCCn1cc[n+]([Pt-2]23[n+]4ccccc4-c4cc(-c5ccc(Br)cc5)cc([n+]42)-c2cccc[n+]23)c1.F[P-](F)(F)(F)(F)F.F[P-](F)(F)(F)(F)F [Complex 3] | 32 ± 1.6 | 7.4 ± 0.4 | 12.2 ± 2.2 | 13.4 ± 1.3 | 24.8 ± 1.1 | 0.0109 ± 0.003 | – | – | –

These reach a lower IC50 [1]. Values come first.

IC50 [1] [µM] | IC50 (A431 cells) [µM] | IC50 (A549 cells) [µM] | IC50 (HeLa cells) [µM] | IC50 (MCF-7 cells) [µM] | IC50 [2] [µM] | Compound | affinity in minor groove binding relative to intercalation with DNA (calf thymus DNA (ct-DNA) [3]) | Ksv (Stern–Volmer quenching constant), replacing Hoechst from ct-DNA (calf thymus DNA (ct-DNA) [3]) [M⁻¹] | Ksv (Stern–Volmer quenching constant), replacing EB from ct-DNA (calf thymus DNA (ct-DNA) [4]) [M⁻¹]
28.9 ± 1.7 | 7.7 ± 1.8 | 13.2 ± 1.8 | 29.8 ± 5 | 20.3 ± 2.7 | 0.0092 ± 0.0006 | COc1cc2ncnc(Nc3ccc(F)c(Cl)c3)c2cc1OCCn1cc[n+]([Pt-2]23[n+]4ccccc4-c4cc(-c5ccc(C)cc5)cc([n+]42)-c2cccc[n+]23)c1.F[P-](F)(F)(F)(F)F.F[P-](F)(F)(F)(F)F [Complex 1] | – | – | –
13.5 ± 1.8 | 1.4 ± 0.4 | 6.5 ± 2.5 | 19.4 ± 5.6 | 27.7 ± 2.2 | 0.007 ± 0.003 | COc1cc2ncnc(Nc3ccc(F)c(Cl)c3)c2cc1OCCCn1cc[n+]([Pt-2]23[n+]4ccccc4-c4cc(-c5ccc(C)cc5)cc([n+]42)-c2cccc[n+]23)c1.F[P-](F)(F)(F)(F)F.F[P-](F)(F)(F)(F)F [Complex 2] | ~ 10 times | 313000 | 25900
26.6 ± 3 | 7.9 ± 3.2 | 11.6 ± 1.1 | 39.4 ± 0.1 | 19.9 ± 2.7 | 0.0096 ± 0.0025 | COc1cc2ncnc(Nc3ccc(F)c(Cl)c3)c2cc1OCCCn1cc[n+]([Pt-2]23[n+]4ccccc4-c4cc(-c5ccc(Br)cc5)cc([n+]42)-c2cccc[n+]23)c1.F[P-](F)(F)(F)(F)F.F[P-](F)(F)(F)(F)F [Complex 4] | ~ 10 times | 311000 | 18900
